Results as given in US20120289566A1, “COMBINATIONS OF FESOTERODINE AND SALIVARY STIMULANTS FOR THE TREATMENT OF OVERACTIVE BLADDER” (THERAVIDA, INC., priority 2011, published 2012).

How the values were obtained:
[1] = tested on: saliva output; conditions: 5 mg of pilocarpine; cited from earlier work
[2] = tested on: saliva flow; assay: Case study: stimulated saliva output (Parafilm chewing, 2 min) after Toviaz and pilocarpine in a single individual; assay type: in vivo, human; conditions: after the administration of 8 mg Toviaz
Experimental: In this study, the effect of fesoterodine (Toviaz®), pilocarpine, the combination of the two, and placebo was measured in separate, yet identical, studies in a single individual.
The following protocol was for a pilot human study to evaluate the extent of saliva flow rate following the administration of 8 mg Toviaz® capsule and 5 or 7.5 mg pilocarpine HCl tablet after about 2.5 hrs from fesoterodine administration. The subject was a healthy, person. The subject performed the following: • 1. Fast the night before. • 2. No coffee or soda 8 hrs prior to taking the first dose. • 3. Record time voiding and measure urine if possible. • 4. Record extent of dryness of the mouth (Very dry, dry, and not dry). • 5. Record any adverse event. • 6. Chew a 1″×1″ piece of Parafilm (American National Can (Neenah, Wis. 54956) Bar code No. 7-466676999) over 2 minutes. • 7. Collect wetted Parafilm and saliva into a tared container (pre-weighed container). • 8. Measure the amount of saliva collected. • 9. Plot Saliva collected per 2 min time intervals against time.
The subject fasted overnight, but had 240 mL of water 1 hr prior to dose. The water continued ad lib until 1 hr pre and 1 hr post dose, other than 120 mL with Toviaz® and 120 mL with 5 mg Salagen® tablet. For lunch, the subject consumed a light sandwich. No coffee, soda, or caffeinated or alcoholic beverages was consumed.

In the case of CC[C@@H]1C(=O)OC[C@@H]1Cc1cncn1C [pilocarpine], the “time of maximum saliva output after administration” value [1] is given as “about 30 minutes” and the “time of pilocarpine administration after Toviaz at which best results are obtained” value [2] is given as 2.3 to 2.5 h.
